The target in this assay is T1, Rat FAAH (Rattus norvegicus, UniProt P97612).
T1 construct: expressed in transfected cells; host or cells: SK-N-MC cells, electroporated, G418-selected clones
T1 sequence (P97612 1-579): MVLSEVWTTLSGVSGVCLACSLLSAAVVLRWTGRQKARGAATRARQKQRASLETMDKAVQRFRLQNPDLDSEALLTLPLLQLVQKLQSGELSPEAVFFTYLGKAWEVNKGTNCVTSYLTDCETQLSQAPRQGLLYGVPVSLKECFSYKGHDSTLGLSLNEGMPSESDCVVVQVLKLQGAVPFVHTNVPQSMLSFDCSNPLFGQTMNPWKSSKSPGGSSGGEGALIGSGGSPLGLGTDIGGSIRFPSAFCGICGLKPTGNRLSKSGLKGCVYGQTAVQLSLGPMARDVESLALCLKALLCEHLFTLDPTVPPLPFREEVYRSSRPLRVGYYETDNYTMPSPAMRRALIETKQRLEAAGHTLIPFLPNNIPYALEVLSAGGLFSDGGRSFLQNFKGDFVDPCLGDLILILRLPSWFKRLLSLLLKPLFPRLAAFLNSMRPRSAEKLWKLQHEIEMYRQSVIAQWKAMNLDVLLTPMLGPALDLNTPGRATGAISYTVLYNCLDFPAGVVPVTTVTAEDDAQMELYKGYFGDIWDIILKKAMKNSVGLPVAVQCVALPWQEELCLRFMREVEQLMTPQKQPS
In words: Assay Method 3: FAAH assay, homogenate of SK-N-MC cells transfected with rat FAAH. Format: biochemical. The settings on record: rat FAAH transfected SK-N-MC cell homogenate; 3H-AEA tracer 80 nM; rt 1 h. On the procedure:
Assay Method 3 A. Transfection of Cells with Rat FAAH
A 10-cm tissue culture dish with a confluent monolayer of SK-N-MC cells was split 2 days (d) prior to transfection. Using sterile technique, the media was removed and the cells were detached from the dish by the addition of trypsin. One fifth of the cells were then placed onto a new 10-cm dish. Cells were grown in a 37° C. incubator with 5% CO2 in Minimal Essential Media Eagle with 10% Fetal Bovine Serum. After 2 d, cells were approximately 80% confluent. These cells were removed from the dish with trypsin and pelleted in a clinical centrifuge. The pellet was re-suspended in 400 μL complete media and transferred to an electroporation cuvette with a 0.4 cm gap between the electrodes. Supercoiled rat FMH cDNA (1 μg) was added to the cells and mixed. The voltage for the electroporation was set at 0.25 kV, and the capacitance was set at 960 μF. After electroporation, the cells were diluted into complete media (10 mL) and plated onto four 10-cm dishes. Because of the variability in the efficiency of electroporation, four different concentrations of cells were plated. […] After 10 d, dishes were analyzed for surviving colonies of cells. Dishes with well-isolated colonies were used. Cells from individual colonies were isolated and tested.
The assay mixture consisted of 50 μL of the cell homogenate, 10 μL of the test compound, and 40 μL of anandamide [1-^3H-ethanolamine] (^3H-AEA, Perkin-Elmer, 10.3 Ci/mmol), which was added last, for a final tracer concentration of 80 nM. The reaction mixture was incubated at rt for 1 h. During the incubation, 96-well Multiscreen filter plates (catalog number MAFCNOB50: Millipore, Bedford, Mass., USA) were loaded with 25 μL of activated charcoal (Multiscreen column loader, catalog number MACL09625, Millipore) and washed once with 100 μL of MeOH. […] After the 1 h incubation, 60 μL of the reaction mixture were transferred to the charcoal plates, which were then assembled on top of the DYNEX plates using Centrifuge Alignment Frames (catalog number MACF09604, Millipore). The unbound labeled ethanolamine was centrifuged through to the bottom plate (5 min at 2000 rpm), which was preloaded with the scintillant, as described above. The plates were sealed and left at rt for 1 h before counting on a Hewlett Packard TopCount.

Molecules are shown by their SMILES.

Take `Cc1ccc(-c2nsc(N3CCN(C(=O)Nc4ccccc4)CC3)n2)cc1` [Example 18, 4-(3-p-Tolyl-[1,2,4]thiadiazol-5-yl)-piperazine-1-carboxylic acid phenylamide]: the IC50 came to 250 nM.
Take `O=C(Nc1ccccc1)N1CCN(c2nc(-c3cccc([N+](=O)[O-])c3)ns2)CC1` [Example 37, 4-[3-(3-Nitro-phenyl)-[1,2,4]thiadiazol-5-yl]-piperazine-1-carboxylic acid phenylamide]: the IC50 was above 10000 nM.
The compound `CC(C)c1ccccc1NC(=O)N1CCN(c2nc(-c3ccccc3)ns2)CC1` [Example 23, 4-(3-Phenyl-[1,2,4]thiadiazol-5-yl)-piperazine-1-carboxylic acid (2-isopropyl-phenyl)-amide] returned a concentration for half-maximal inhibition (IC50) above 10000 nM.
Take `O=C(Nc1ccccc1)N1CCN(c2nc(-c3ccc(Cl)cc3)ns2)CC1` [Example 20, 4-[3-(4-Chloro-phenyl)-[1,2,4]thiadiazol-5-yl]-piperazine-1-carboxylic acid phenylamide]: 350 nM corresponded to half-maximal inhibition (IC50).
Next, `COc1ccc(-c2nsc(N3CCN(C(=O)Nc4ccccc4)CC3)n2)cc1` [Example 19, 4-[3-(4-Methoxy-phenyl)-[1,2,4]thiadiazol-5-yl]-piperazine-1-carboxylic acid phenylamide]: 490 nM; `O=C(Nc1ccccc1F)N1CCN(c2nc(-c3ccccc3)ns2)CC1` [Example 21, 4-(3-Phenyl-[1,2,4]thiadiazol-5-yl)-piperazine-1-carboxylic acid (2-fluoro-phenyl)-amide]: 6 nM.
For `CN(C)c1ccc(NC(=O)N2CCN(c3nc(-c4ccccc4)ns3)CC2)cc1` [Example 26, 4-(3-Phenyl-[1,2,4]thiadiazol-5-yl)-piperazine-1-carboxylic acid (4-dimethylamino-phenyl)-amide], the IC50 is above 10000 nM.
Regarding `COC(=O)c1ccc(NC(=O)N2CCN(c3nc(-c4ccccc4)ns3)CC2)cc1` [Example 30, 4-{[4-(3-Phenyl-[1,2,4]thiadiazol-5-yl)-piperazine-1-carbonyl]-amino}-benzoic acid methyl ester], the IC50 was above 10000 nM.

As usually defined, the IC50 is the point on the concentration scale where inhibition reaches its midpoint. A high value points to weaker potency in that assay.

Source of the values: patent US7541359B2, “N-heteroarylpiperazinyl ureas as modulators of fatty acid amide hydrolase” (Janssen Pharmaceutica N.V., priority 2005, dated 2009).
